Legend:
cell-cell adhesion = test: Cell-cell adhesion; format: cell-based
[1] = system: neutrophils, endothelium, fibrosarcomas melanoma; test: Attachment of neutrophils, endothelium, fibrosarcomas, melanoma; format: cell-based
alpha4 integrin = target: T1, alpha4 integrin (Homo sapiens, UniProt P13612); test: alpha4 integrin binding
T1 sequence (P13612 34-1032): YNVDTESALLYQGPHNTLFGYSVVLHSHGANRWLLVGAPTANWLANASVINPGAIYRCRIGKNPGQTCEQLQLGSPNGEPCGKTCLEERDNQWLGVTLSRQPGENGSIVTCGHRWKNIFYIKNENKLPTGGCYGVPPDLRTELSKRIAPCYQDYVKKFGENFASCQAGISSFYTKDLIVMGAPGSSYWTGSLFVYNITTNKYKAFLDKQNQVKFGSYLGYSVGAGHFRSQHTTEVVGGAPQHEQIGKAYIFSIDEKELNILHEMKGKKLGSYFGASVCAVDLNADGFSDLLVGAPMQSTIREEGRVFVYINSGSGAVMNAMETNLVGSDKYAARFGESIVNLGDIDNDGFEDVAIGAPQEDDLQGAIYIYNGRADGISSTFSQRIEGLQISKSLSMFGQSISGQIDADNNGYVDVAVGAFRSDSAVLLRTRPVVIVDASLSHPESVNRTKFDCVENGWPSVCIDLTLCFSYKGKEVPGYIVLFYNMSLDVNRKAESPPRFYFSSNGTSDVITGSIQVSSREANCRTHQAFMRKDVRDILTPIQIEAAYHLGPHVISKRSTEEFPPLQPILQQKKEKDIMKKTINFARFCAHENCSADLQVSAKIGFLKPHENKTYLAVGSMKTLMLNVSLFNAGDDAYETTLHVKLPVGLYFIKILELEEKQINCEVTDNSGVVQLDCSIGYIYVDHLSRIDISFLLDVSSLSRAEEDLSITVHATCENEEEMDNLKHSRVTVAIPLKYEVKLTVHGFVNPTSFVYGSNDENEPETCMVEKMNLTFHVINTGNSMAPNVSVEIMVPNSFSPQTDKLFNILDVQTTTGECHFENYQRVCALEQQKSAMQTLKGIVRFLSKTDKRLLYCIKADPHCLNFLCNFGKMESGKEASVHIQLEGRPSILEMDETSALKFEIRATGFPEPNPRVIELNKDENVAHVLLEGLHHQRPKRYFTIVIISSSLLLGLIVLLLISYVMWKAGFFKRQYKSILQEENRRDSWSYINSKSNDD

β3 = target: T2, β3 (Homo sapiens, UniProt P05106); test: β3 attachment; format: cell-based
T2 sequence (P05106 27-788): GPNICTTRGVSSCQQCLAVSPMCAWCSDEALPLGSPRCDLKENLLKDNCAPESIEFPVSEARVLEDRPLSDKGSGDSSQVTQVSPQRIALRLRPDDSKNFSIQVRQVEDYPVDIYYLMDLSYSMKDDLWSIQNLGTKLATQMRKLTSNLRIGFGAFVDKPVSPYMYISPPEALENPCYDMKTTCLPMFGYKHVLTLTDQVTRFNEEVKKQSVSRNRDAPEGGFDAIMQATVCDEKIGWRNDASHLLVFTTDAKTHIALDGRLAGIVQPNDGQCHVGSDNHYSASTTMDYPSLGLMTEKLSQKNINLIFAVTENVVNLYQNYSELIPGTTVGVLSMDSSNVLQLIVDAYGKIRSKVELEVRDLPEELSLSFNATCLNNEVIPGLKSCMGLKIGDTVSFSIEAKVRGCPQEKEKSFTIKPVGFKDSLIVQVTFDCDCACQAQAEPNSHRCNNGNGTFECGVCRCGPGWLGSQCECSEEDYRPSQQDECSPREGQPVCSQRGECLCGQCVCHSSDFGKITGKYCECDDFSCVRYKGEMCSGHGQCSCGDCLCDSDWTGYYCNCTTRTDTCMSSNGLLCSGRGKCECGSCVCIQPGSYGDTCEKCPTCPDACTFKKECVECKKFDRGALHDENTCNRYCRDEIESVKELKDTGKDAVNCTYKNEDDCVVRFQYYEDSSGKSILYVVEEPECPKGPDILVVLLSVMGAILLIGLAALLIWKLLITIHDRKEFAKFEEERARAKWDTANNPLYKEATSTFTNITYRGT

β integrin = β integrin binding
melanoma cell = test: Melanoma cell attachment; format: cell-based
Endothelial cell = Endothelial cell attachment; format: cell-based
cell entry of peptides = test: Cell entry of peptides; format: cell-based
angiogenesis = test: Anti-angiogenic activity
Fibronectin receptor = Fibronectin receptor (Homo sapiens, UniProt P05556+P08648); test: Fibronectin receptor binding
Sequence of Fibronectin receptor (P08648 42-894 limits assumed): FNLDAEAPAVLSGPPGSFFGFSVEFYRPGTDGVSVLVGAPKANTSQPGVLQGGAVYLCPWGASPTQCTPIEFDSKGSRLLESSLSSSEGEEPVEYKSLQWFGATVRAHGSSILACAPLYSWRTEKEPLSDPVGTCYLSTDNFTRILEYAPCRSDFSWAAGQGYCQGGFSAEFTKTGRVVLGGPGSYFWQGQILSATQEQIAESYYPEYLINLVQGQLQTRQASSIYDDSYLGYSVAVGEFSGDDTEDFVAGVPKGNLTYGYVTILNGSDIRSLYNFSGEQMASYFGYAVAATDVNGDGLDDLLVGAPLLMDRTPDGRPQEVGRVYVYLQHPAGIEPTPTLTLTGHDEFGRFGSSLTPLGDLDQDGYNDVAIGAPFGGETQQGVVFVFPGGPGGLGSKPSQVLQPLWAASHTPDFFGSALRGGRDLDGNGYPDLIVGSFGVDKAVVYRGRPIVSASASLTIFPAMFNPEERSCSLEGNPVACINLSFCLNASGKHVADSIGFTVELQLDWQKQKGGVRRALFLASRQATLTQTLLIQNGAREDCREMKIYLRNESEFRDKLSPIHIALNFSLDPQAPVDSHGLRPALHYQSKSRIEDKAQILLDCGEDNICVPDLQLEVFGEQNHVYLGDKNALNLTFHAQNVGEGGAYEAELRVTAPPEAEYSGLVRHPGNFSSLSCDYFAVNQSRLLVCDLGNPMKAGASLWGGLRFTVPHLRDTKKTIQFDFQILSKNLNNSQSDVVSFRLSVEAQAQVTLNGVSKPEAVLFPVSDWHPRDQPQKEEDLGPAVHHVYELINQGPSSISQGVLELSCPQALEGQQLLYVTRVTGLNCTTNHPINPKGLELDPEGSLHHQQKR
Sequence of Fibronectin receptor (P08648 895-1049 limits assumed): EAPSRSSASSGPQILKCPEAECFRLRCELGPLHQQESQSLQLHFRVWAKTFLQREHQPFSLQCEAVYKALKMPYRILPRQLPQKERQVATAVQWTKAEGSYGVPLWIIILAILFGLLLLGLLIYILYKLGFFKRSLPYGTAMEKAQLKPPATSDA
Sequence of Fibronectin receptor (P05556 21-798): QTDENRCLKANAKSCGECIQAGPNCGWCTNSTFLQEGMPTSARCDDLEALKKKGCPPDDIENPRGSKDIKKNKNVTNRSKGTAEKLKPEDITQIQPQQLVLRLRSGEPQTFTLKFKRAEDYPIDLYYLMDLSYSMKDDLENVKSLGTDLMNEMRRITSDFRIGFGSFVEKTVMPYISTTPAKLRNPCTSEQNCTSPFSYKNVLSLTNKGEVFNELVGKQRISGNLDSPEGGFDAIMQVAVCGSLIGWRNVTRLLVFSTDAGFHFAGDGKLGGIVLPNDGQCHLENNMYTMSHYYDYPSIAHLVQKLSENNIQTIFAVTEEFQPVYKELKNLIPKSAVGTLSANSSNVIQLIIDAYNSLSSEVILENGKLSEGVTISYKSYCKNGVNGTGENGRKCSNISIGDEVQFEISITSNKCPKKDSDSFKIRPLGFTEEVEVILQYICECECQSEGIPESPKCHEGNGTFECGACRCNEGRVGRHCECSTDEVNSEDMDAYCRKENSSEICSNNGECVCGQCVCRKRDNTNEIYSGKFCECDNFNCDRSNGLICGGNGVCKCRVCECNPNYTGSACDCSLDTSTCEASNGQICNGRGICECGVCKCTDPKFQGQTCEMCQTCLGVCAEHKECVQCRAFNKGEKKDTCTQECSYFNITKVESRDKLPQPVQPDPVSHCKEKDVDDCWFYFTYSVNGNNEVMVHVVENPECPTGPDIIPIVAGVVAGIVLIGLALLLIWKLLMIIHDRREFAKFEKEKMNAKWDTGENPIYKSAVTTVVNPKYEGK

collagenase = test: Collagenase induction; format: cell-based
alphavbetax = test: Cell attachment, alphavbetax specific; format: cell-based
tumor cells [2] = test: Apoptosis of tumor cells; format: cell-based
Source text: Many cells may undergo programmed cell death which is a genetically mediated form of self destruction. This phenomenon is commonly referred to in the art as apoptosis. Frequently, apoptotic cells may be recognized by changes in their biochemical, morphological and molecular features. Morphological changes include, but are not limited to, cell shape change, cell shrinkage, cell detachment, apoptotic bodies, nuclear fragmentation, nuclear envelope changes and loss of cell surface structures. Biochemical changes may include proteolysis, protein cross linking, DNA denaturation, cell dehydration, intranucleosomal cleavage and a rise in free calcium ions. Such characteristics are easily identifiable by methods well established in the art. Peptides isolated by the disclosed mini-cell display method are tested for their effects on such physiological and biochemical processes.

tumor cells [3] = test: Homotypic aggregation of tumor cells; format: cell-based
fibroblast = test: Fibroblast attachment; format: cell-based

KKAKKSRRS (Anti-adhesion (cell-cell).)
FUNCTIONAL ACTIVITY: Anti-adhesion (cell-cell) (cell-cell adhesion): Anti-adhesion (cell-cell)

KGMNYTVR (Inhibits neutrophils, endothelium, fibro- sarcomas, melanoma attachment.)
FUNCTIONAL ACTIVITY: Inhibits, neutrophils, endothelium, fibrosarcomas melanoma attachment [1]: Inhibits, neutrophils,

EPEESDVGGAADYP (Inhibits alpha 4 integrin binding.)
FUNCTIONAL ACTIVITY: Inhibits alpha4 integrin binding (alpha4 integrin): Inhibits alpha4 integrin

DKKELAKFQAERSAAS (beta 3 attachment.)
FUNCTIONAL ACTIVITY: β3 attachment (β3): β3 attachment

TPVVPTVDTYDGRGDSLAY (beta integrin binding.)
FUNCTIONAL ACTIVITY: β integrin binding (β integrin): β integrin binding

LDSAS: bioactive peptide isolated by minicell display (Inhibits alpha 4 integrin binding.)
FUNCTIONAL ACTIVITY: Inhibits alpha4 integrin binding (alpha4 integrin): Inhibits alpha4 integrin

HDRREFAKFQSERSRA (beta 3 attachment.)
FUNCTIONAL ACTIVITY: β3 attachment (β3): β3 attachment

DRYLKFRPV (Inhibits melanoma cell attachment.)
FUNCTIONAL ACTIVITY: Inhibits melanoma cell attachment (melanoma cell): Inhibits melanoma cell

RRSRSSTGKKQKSSQSRKTA (Anti-adhesion (cell-cell))
FUNCTIONAL ACTIVITY: Anti-adhesion (cell-cell) (cell-cell adhesion): Anti-adhesion (cell-cell)

WTGGDDSGSPSSPS (Inhibits alpha 4 integrin binding.)
FUNCTIONAL ACTIVITY: Inhibits alpha4 integrin binding (alpha4 integrin): Inhibits alpha4 integrin

SDV: bioactive peptide isolated by minicell display (Inhibits alpha 4 integrin binding.)
FUNCTIONAL ACTIVITY: Inhibits alpha4 integrin binding (alpha4 integrin): Inhibits alpha4 integrin

HDRKEVAKFEAERSKA (beta 3 attachment.)
FUNCTIONAL ACTIVITY: β3 attachment (β3): β3 attachment

SDQDQDGDGHQDS (Endothelial cell attachment.)
FUNCTIONAL ACTIVITY: Endothelial cell attachment (Endothelial cell): Endothelial cell attachment

HDRKEFAKFEEEERARA (beta 3 attachment.)
FUNCTIONAL ACTIVITY: β3 attachment (β3): β3 attachment

CVVVLVL (Promotes cell entry of peptides.)
FUNCTIONAL ACTIVITY: Promotes cell entry of peptides (cell entry of peptides): Promotes cell entry of peptides

QESPSGTDLLVAGSSP (Inhibits alpha 4 integrin binding.)
FUNCTIONAL ACTIVITY: Inhibits alpha4 integrin binding (alpha4 integrin): Inhibits alpha4 integrin

DSVVYGLRSK (Inhibitor of heparin binding.)
FUNCTIONAL ACTIVITY: Inhibits heparin binding (Heparin binding): Inhibits heparin binding

QVGLKPLV (Anti-angiogenic.)
FUNCTIONAL ACTIVITY: Anti-angiogenic (angiogenesis): Anti-angiogenic

GRGDNPS (Fibronectin receptor binding collagenase induction.)
FUNCTIONAL ACTIVITY: Fibronectin receptor binding (Fibronectin receptor): Fibronectin receptor binding | FUNCTIONAL ACTIVITY: collagenase induction (collagenase): collagenase induction

AADVESPS (Inhibits alpha 4 integrin binding.)
FUNCTIONAL ACTIVITY: Inhibits alpha4 integrin binding (alpha4 integrin): Inhibits alpha4 integrin

TPFIPTESANDGRGDSVAW (Cell attachment/ alpha v beta x specific.)
FUNCTIONAL ACTIVITY: Cell attachment/alphavbetax specific (alphavbetax): Cell attachment/a1phavbetax

DGGRGDSLGWYRRGRGGARRSKAKKAAAKNNQKSEPLIGRKKT (Apoptotic to tumor cells.)
FUNCTIONAL ACTIVITY: Apoptotic to tumor cells (tumor cells [2]): Apoptotic to tumor cells

KRSR: bioactive peptide isolated by minicell display (Apoptotic to tumor cells.)
FUNCTIONAL ACTIVITY: Apoptotic to tumor cells (tumor cells [2]): Apoptotic to tumor cells

HKFVHWKKPVLPSQNNQ (Inhibits melanoma cell attachment.)
FUNCTIONAL ACTIVITY: Inhibits melanoma cell attachment (melanoma cell): Inhibits melanoma cell

KKGKKSKRS (Anti-adhesion (cell-cell).)
FUNCTIONAL ACTIVITY: Anti-adhesion (cell-cell) (cell-cell adhesion): Anti-adhesion (cell-cell)

ATWLPPR (Anti-angiogenic.)
FUNCTIONAL ACTIVITY: Anti-angiogenic (angiogenesis): Anti-angiogenic

LVPSSKGRGDYLAQSQP (Fibronectin receptor binding collagenase induction.)
FUNCTIONAL ACTIVITY: Fibronectin receptor binding (Fibronectin receptor): Fibronectin receptor binding | FUNCTIONAL ACTIVITY: collagenase induction (collagenase): collagenase induction

LDSPPAALS (Inhibits alpha 4 integrin binding.)
FUNCTIONAL ACTIVITY: Inhibits alpha4 integrin binding (alpha4 integrin): Inhibits alpha4 integrin

DSVAYGLKSRSK (Inhibitor of heparin binding.)
FUNCTIONAL ACTIVITY: Inhibits heparin binding (Heparin binding): Inhibits heparin binding

HGRFILPWWYAFSPS (Inhibits homotypic aggregation of tumor cells.)
FUNCTIONAL ACTIVITY: Inhibit homotypic aggregation of tumor cells (tumor cells [3]): Inhibit homotypic aggregation

QSWKKQGSPSSPQRRSKGGRKP (beta 3 attachment.)
FUNCTIONAL ACTIVITY: β3 attachment (β3): β3 attachment

PNGRGESLAY (Inhibits fibroblast attachment, inhibits collagenase induction.)
FUNCTIONAL ACTIVITY: Inhibits fibroblast attachment (fibroblast): Inhibits fibroblast attachment, | FUNCTIONAL ACTIVITY: inhibits collagenase induction (collagenase): inhibits collagenase induction

SDQDNNGKGSHES (Endothelial cell attachment.)
FUNCTIONAL ACTIVITY: Endothelial cell attachment (Endothelial cell): Endothelial cell attachment

TPTVRGAAGSGNQN (Anti-angiogenic)
FUNCTIONAL ACTIVITY: Anti-angiogenic (angiogenesis): Anti-angiogenic

DSVAYGLKSK (Inhibitor of heparin binding.)
FUNCTIONAL ACTIVITY: Inhibits heparin binding (Heparin binding): Inhibits heparin binding

— US7125679B2, “Methods to screen peptide libraries using minicell display” (Children's Medical Center Corporation, priority 2001, dated 2006)
